Peptide text beside a SMILES is read from it.
Tests used:
APA (SK-RC-49/APA cells) = target: T1, APA (SK-RC-49/APA cells) (Homo sapiens, UniProt Q07075); test: Phage binding specificity assay on SK-RC-49/APA cells; type: cell-based; details: soluble peptide in binding medium, not shown
T1 construct: The renal carcinoma cell line SK-RC-49 was transfected with an expression vector encoding full-length APA cDNA; expressed in transfected cells; host or cells: SK-RC-49 renal carcinoma cells, stably transfected (G418)
T1 sequence (Q07075 whole entry): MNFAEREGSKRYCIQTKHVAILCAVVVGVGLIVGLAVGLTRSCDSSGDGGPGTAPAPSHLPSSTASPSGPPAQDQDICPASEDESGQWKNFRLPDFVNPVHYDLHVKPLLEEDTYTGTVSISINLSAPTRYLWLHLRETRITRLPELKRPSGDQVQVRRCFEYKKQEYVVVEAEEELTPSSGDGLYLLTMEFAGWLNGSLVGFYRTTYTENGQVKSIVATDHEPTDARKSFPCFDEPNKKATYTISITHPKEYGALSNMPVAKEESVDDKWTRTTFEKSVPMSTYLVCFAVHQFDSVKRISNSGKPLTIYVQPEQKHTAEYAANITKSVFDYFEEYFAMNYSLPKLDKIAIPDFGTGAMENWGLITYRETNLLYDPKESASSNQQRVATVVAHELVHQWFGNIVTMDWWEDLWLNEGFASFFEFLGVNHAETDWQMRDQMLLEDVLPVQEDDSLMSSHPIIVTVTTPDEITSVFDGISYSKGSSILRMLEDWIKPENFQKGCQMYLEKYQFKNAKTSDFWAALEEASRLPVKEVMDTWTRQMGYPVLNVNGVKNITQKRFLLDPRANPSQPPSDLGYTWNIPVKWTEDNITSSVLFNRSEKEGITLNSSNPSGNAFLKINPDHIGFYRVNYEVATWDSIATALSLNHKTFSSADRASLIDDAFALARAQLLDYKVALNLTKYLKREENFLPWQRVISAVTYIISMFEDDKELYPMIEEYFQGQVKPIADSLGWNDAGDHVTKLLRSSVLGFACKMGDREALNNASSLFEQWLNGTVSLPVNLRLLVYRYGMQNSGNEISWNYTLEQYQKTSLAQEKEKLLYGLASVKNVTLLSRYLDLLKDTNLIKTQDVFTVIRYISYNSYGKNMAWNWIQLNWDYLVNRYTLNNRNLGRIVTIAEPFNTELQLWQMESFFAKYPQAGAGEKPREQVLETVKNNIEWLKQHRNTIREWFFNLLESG
Procedure: The cell binding assay was performed with an input of 10^9 TU as described for the cell panning. The specificity was confirmed by adding […] (SEQ ID NO:123) peptide to the binding medium in increasing concentrations. For phage binding on immunocaptured APA, wells were blocked for 1 h at room temperature with PBS/3% BSA and incubated with 10^9 TU for 1 h at room temperature in 50 μl PBS/3% BSA. After eight washes in PBS/1% BSA/0.01% Tween-20 and two washes in PBS, phage were rescued by adding 200 μl of exponentially growing K91Kan E. coli. Each experiment was repeated at least three times.

[1] = target: T2, Aminopeptidase A (APA, EC 3.4.11.7) (Homo sapiens, UniProt Q07075); test: APA enzyme assay (α-glutamyl-p-nitroanilide, SK-RC-49/APA cells); type: biochemical; details: highest concentration tested
T2 construct: The renal carcinoma cell line SK-RC-49 was transfected with an expression vector encoding full-length APA cDNA; expressed in transfected cells; host or cells: SK-RC-49 renal carcinoma cells, stably transfected (G418)
T2 sequence (Q07075 whole entry): as above

HUVECs [2] = test: HUVEC chemotaxis assay (Boyden chamber, VEGF-A); type: cell-based, human
Procedure: FIG. 24. […] (SEQ ID NO:123) inhibits HUVEC migration. HUVECs were stimulated with VEGF-A (10 ng/ml). The assay was performed in a Boyden microchemotaxis chamber, and cells were allowed to migrate through an 8-μm pore filter for 5 h at 37° C. […] (SEQ ID NO:124) (control) and […] (SEQ ID NO:123) peptides were tested at 1 mM concentration. Migrated cells were stained and five high-power fields (magnitude 100×) for each microwell were counted. Error bars are the standard error of the means of triplicate microwells.
A cell migration assay was performed in a 48-well microchemotaxis chamber (NeuroProbe, Gaithersburg, Md.) according to Bussolini et al. (1995). Polyvinylpyrrolidone-free polycarbonate filters (Nucleopore, Cambridge, Mass.) with 8-μm pores were coated with 1% gelatin for 10 min at room temperature and equilibrated in M199 medium supplemented with 2% FCS. […] (SEQ ID NO:123) or control […] (SEQ ID NO:124) peptide (1 mM) was placed in the lower compartment of a Boyden chamber in M199 medium supplemented with 2% FCS and 10 ng/ml VEGF-A (R&D System). Subconfluent cultures that had been starved overnight were harvested in PBS containing 2.5 mM EDTA, washed once in PBS, and resuspended in M199 medium containing 2% FCS at a final concentration of 2×10^6 cells/ml. After the filter was placed between the lower and upper chambers, 50 μl of the cell suspension was seeded in the upper compartment, and cells were allowed to migrate for 5 h at 37° C. in a humidified atmosphere with 5% CO2. The filter was then removed, and cells on the upper side were scraped with a rubber policeman. Migrated cells were fixed in methanol and stained with Giemsa solution (Diff-Quick, Baxter Diagnostics, Rome, Italy). Five random high-power fields (magnitude 100×) were counted in each well. Each assay was run in triplicate.

HUVECs [3] = test: HUVEC cell growth assay (crystal violet, VEGF-A); type: cell-based, human
Procedure: FIG. 25. […] (SEQ ID NO:123) inhibits HUVEC proliferation. Cells were stimulated with VEGF-A (10 ng/ml), and growth was evaluated at the indicated times by a colorimetric assay based on crystal violet staining. Error bars are the standard error of the means of triplicate wells. Each experiment was repeated at least twice with similar results.
HUVECs were seeded in 48-well plates (10^4 cells/well) and allowed to attach for 24 h in complete M199 medium. The cells were then starved in M199 medium containing 2% FCS for 24 h. […] (SEQ ID NO:123) or control […] (SEQ ID NO:124) peptide (1 mM) was added to the wells in medium containing 2% FCS and 10 ng/ml VEGF-A (R&D System, Abingdom, UK). After incubation for the indicated times, cells were fixed in 2.5% glutaraldehyde, stained with 0.1% crystal violet in 20% methanol, and solubilized in 10% acetic acid. All treatments were done in triplicate. Cell growth was evaluated by measuring the O.D. at 590 nm in a microplate reader (Biorad, Hercules, Calif.). A calibration curve was established and a linear correlation between O.D. and cell counts was observed between 10^3 and 10^5 cells.

HUVECs [4] = test: Three-dimensional Matrigel culture of HUVECs (capillary-like network); type: cell-based, human; details: not shown
Procedure: Matrigel (Collaborative Research, Bedford, Mass.) was added at 100 μl per well to 48-well tissue culture plates and allowed to solidify for 10 min at 37° C. HUVECs were starved for 24 h in M199 medium supplemented with 2% FCS before being harvested in PBS containing 2.5 mM EDTA. 10^4 cells were gently added to each of the triplicate wells and allowed to adhere to the gel coating for 30 min at 37° C. Then, medium was replaced with indicated concentrations of […] (SEQ ID NO:123) or […] (SEQ ID NO:124) peptides in complete medium. The plates were photographed after 24 h with an inverted microscope (Canon). The assay was repeated three times.

[5] = test system: chicken chorioallantoic membrane (CAM); test: CAM assay for angiogenesis; type: in vivo
Procedure: In vivo angiogenesis was evaluated by a CAM assay (Ribatti et al., 1994). Fertilized eggs from White Leghorn chickens were maintained in constant humidity at 37° C. On the third day of incubation, a square window was opened in the eggshell and 2-3 ml of albumen was removed to detach the developing CAM from the shell. The window was sealed with a glass plate of the same size and the eggs were returned to the incubator. At day 8, 1 mm^3 sterilized gelatin sponges (Gelfoam, Upjohn Co, Kalamazoo, Milan) were adsorbed with VEGF-A (20 ng, R&D System) and either […] (SEQ ID NO:123) or control […] (SEQ ID NO:124) peptide (1 mM) in 3 μl PBS and implanted on the top of the growing CAMs under sterile conditions. CAMs were examined daily until day 12 and photographed in ovo with a Leica stereomicroscope. Capillaries emerging from the sponge were counted. The assay was repeated twice.

[6] = target: T3, β3 integrin cytoplasmic domain (Homo sapiens, UniProt P05106); test: Binding of Fyn-phosphorylated phage to β3 cytoplasmic domain; details: phage phosphorylated by Fyn versus unphosphorylated phage
T3 construct: recombinant fusion proteins containing β3 or β5 cytoplasmic domains
T3 sequence (P05106 742-788 limits assumed): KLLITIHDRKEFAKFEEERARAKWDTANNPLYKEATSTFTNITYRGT
Procedure: Phosphorylation of peptide libraries with src family protein kinases (Fyn, c-Src, Lyn, and Syc) and serine/threonine kinases such as a MAP kinase were performed as described previously (Schmitz et al., 1996; Dente et al., 1997; Gram et al., 1997). Briefly, phage particles were collected from culture supernatants by double precipitation with 20% polyethylene glycol 8000 in 2.5 M NaCl. Particles were dissolved at 10^12 particles/ml. Purified phage (10 μl) were incubated for 3 hours at room temperature with different concentrations (35 to 3,500 units) of protein kinases in a reaction buffer volume of 50 μl. The reaction mixtures were transferred to tubes containing 10 μg of agarose-conjugated anti-P-Tyr, anti-P-Ser, or anti-P-Thr monoclonal antibodies to select phage displaying phosphorylated peptides. […] Phosphorylated peptides binding to β3 and β5 cytoplasmic domains were analyzed as described in the previous section.
Randomly selected clones from rounds III and IV were sequenced from a X4YX4 phosphorylated library with Fyn. […] The ratio of binding to β3 or β5 was calculated by dividing the number of β3 or β5 colonies by GST or BSA colonies found after panning. The ratio of binding to β3 or β5 with phosphorylated phage by Fyn versus unphosphorylated phage was calculated by dividing the number of colonies found after the panning. […]

[7] = lower concentrations, not shown

Row | Compound | competition with CPKVCPRECESNC phage for binding to SK-RC-49/APA cells (APA (SK-RC-49/APA cells)) | reduction of APA enzyme activity [1] [%] | inhibition of chemotaxis of HUVECs (HUVECs [2]; 1 mM, VEGF-A 10 ng/ml, 5 h, FIG. 24) [%] | effect on cell migration (HUVECs [2]; [7]) | inhibition of HUVEC proliferation (HUVECs [3]; 1 mM, VEGF-A 10 ng/ml, FIG. 25) [%] | effect on cell proliferation (HUVECs [3]; [7]) | HUVEC morphogenesis / capillary-like network (HUVECs [4]; 1 mM, 24 h) | formation of capillary-like network (HUVECs [4]; increasing concentrations) | inhibition of VEGF-A-induced neovascularization (number of capillaries emerging from the sponge) ([5]; 1 mM, VEGF-A 20 ng, day 12) [%] | effect on the number of growing vessels ([5]; lower peptide concentrations, not shown) | Phos/Unphos [6]
1 | CC[C@H](C)[C@H](NC(=O)[C@H](CO)NC(=O)[C@H](CCC(=O)O)NC(=O)[C@H](CS)NC(=O)[C@H](CCC(=O)O)NC(=O)[C@H](CCCNC(=N)N)NC(=O)[C@@H]1CCCN1C(=O)[C@@H](N)CS)C(=O)N[C@@H](CS)C(=O)O (H-CPRECESIC-OH) | competed | 60 | 70 | no significant effect | 50 | no significant effect | vessel-like branching structures were significantly fewer and shorter | progressive impairment of the formation of this network | 40 | no effect | –
2 | MLLGYRFEK | – | – | – | – | – | – | – | – | – | – | 2.5

From patent US8710017B2, “Human and mouse targeting peptides identified by phage display” (priority 2000, dated 2014)
